Source: patent US20100009917A1, “Modulating Enzymatic Processes by Addition of Diolcontaining Substances” (priority 2007, published 2010)
Read-outs that look alike come from different tables or passages of the source.

Target: T1, TGase MTG P2 (Streptomyces mobaraensis, UniProt P81453)
T1 construct: made in house; host or cells: E. coli
Assay type: biochemical, Streptovercilium mobaraense
Experimental: TGase: • (a) TGase Activa WM from Ajinomoto, 60 mg/ml in 20 mM Phosphate buffer pH 8.5. The Activa WM enzyme from Streptoverticillium mobaraense is formulated under dry form in maltodextrins and contains 1% w/w of protein) (6.7 μl)); or • (b) TGase MTG P2 from Streptovercilium mobaraense expressed in soluble form using E. coli as expression system was formulated in 20 mM NaPhosphate buffer, pH 6.0, with 2 mM DTT and 5 w/v % maltodextrin. The concentration of the enzyme was between 0.7 and 4.5 mg/ml.
Capillary electrophoresis (CE) was carried out using an Agilent Technologies 3D-CE system (Agilent Technologies). Data acquisition and signal processing were performed using Agilent Technologies 3DCE ChemStation. The capillary was a 64.5 cm (56.0 cm efficient length) 50 μm i.d. “Extended Light Path Capillary” from Agilent. UV detection was performed at 200 nm (16 nm Bw, Reference 380 nm and 50 nm Bw). The running electrolyte was phosphate buffer 50 mM pH7.0. The capillary was conditioned with 0.1M NaOH for 3 min, then with Milli-Q water for 2 min and with the electrolyte for 3 min.
After each run, the capillary was flushed with milli-Q water for 2 min, then with phosphoric acid for 2 min, and with milli-Q water for 2 min. The hydrodynamic injection was done at 50 mbar for 4.0 s. The voltage was +25 kV. The capillary temperature was 30 C and the runtime was 10.5 min.
To a 1M solution of […] in triethanolamine 20 mM pH8.6 buffer (14 μl) was added triethanolamine 20 mM pH8.6 buffer (20.6 μl), ethylene glycol (53.6 μl) (40% w/v)), and a solution of human growth hormone (50 mg/ml) in triethanolamine 20 mM pH8.6 buffer (40 μl). The reaction was started by the addition of the TGase MTG P2 solution (0.35 mg/ml, 5.8 μl). The reaction mixture was incubated at ambient temperature and followed on CE.
The reaction was carried out in an analogous manner to the above method using the following concentrations: • [hGH]=0.67 mM (14.9 mg/ml final concentration) • [1,3-diamino 2-propanol]=300 mM • Buffer: 20 mM Triethanolamine pH 8.6 • +/−Ethylene glycol 40% (v/v) • [TGase MTG P2]=0.39 μM
The reaction was carried out in an analogous manner to the above method using the following concentrations: • [hGH]=0.67 mM (14.9 mg/ml final concentration) • [1,3-diamino 2-propanol]=300 mM • Buffer: 20 mM Triethanolamine pH 8.6 • +/−Ethylene glycol 10-40% (v/v) • [TGase MTG P2]=0.39 μM
The reaction was carried out in an analogous manner to the above method using the following concentrations: • [hGH]=0.67 mM (14.9 mg/ml final concentration) • [1,3-diamino 2-propanol]=300 mM • Buffer: 20 mM Triethanolamine pH 8.6 • +/−Ethylene glycol 40% (v/v) • [TGase MTG P2]=0.39 μM or 0.16 μM
The reaction was carried out with ethylene glycol, glycerol, propylene glycol and 1,3 propanediol in an analogous manner to the above method using the following concentrations: • [hGH]=0.67 mM (14.9 mg/ml final concentration) • [1,3-diamino 2-propanol]=300 mM • Buffer: 20 mM Triethanolamine pH 8.6 • +/−enhancing compound 7.18 M • [TGase MTG P2]=0.39 μM
The reaction was carried out with glycerol in an analogous manner to the above method, except for the fact that more enzyme was added after five hours of reaction time. The reaction used the following concentrations: • [hGH]=0.67 mM (14.9 mg/ml final concentration) • [1,3-diamino 2-propanol]=300 mM • Buffer: 20 mM Triethanolamine pH 8.6 • Glycerol 7.18 M • [TGase MTG P2]=0.39 μM then 1.17 μM at 5 hours

[1] = enhancing compound 7.18 M, TGase MTG P2 0.39 μM, FIG. 7

T1 sequence (P81453 77-407): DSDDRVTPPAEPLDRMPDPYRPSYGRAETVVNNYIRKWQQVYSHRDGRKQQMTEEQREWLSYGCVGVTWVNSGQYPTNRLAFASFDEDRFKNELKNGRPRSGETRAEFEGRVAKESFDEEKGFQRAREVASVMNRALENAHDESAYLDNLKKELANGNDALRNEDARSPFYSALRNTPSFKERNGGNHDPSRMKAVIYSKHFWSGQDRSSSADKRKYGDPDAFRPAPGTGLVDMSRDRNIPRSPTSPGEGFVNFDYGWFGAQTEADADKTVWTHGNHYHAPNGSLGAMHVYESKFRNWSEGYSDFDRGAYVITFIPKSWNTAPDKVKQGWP

`OCCCO` [1,3 propanediol, reference compound] was tested, and the “effect on the enzyme reaction” value (1,3 propanediol 7.18 M, TGase MTG P2 0.39 μM, FIG. 7) was “completely inhibited the reaction”.
With `CC(O)CO` (stereo not drawn) [Propylene glycol, propylene glycol] the “yield, comparison of compounds of related structures” value [1] was “next highest yield”.
In the case of `OCC(O)CO` [Glycerol, glycerol], the “selectivity of the reaction” value is reported as “improved the selectivity of the reaction”, the “side products (pos.40-TA-hGH and di-transaminated hGH) formed” value [1] is reported as “reduce the amount of side products” and the “yield when more enzyme is added” value (glycerol 7.18 M, TGase MTG P2 0.39 μM then 1.17 μM at 5 hours, FIG. 8) is reported as “can be increased”.
In the case of `OCCO` [ethylene glycol], the “product yield, varying enzyme concentration” value is reported as “highest product yield”, the “yield of pos.141 TA-hGH with rising ethylene glycol concentration” value is reported as “increased yield” and the “yield, comparison of compounds of related structures” value is reported as “highest yield”. The “maximum yield of the desired pos.141-hGH” value (pH 8.6) was 75%.
